The values that follow come from patent publication US10835548B2, “Metronomic oral gemcitabine for cancer therapy” (priority 2016, dated 2020).

Data set [1] relates to CFPAC-1 pancreatic cancer xenografts. The data set is described as follows: 5FU injection followed by GEMORAL in CFPAC-1 xenografted mouse model. The data set is classed as in vivo, BALB/c nude mice. The protocol: Pancreatic cancer monotherapy using 5-fluorouracil (5FU) injection is known. […] We investigated oral metronomic GEM administration as a second-line treatment in 5FU-non-responsive pancreatic tumors using a xenograft model. To prepare the xenografted mice used in the study, 1×10^6 human CFPAC-1 pancreatic cancer cells were transplanted subcutaneously on the right flank of 6 week old male BALB/c nude mice. Tumor growth was observed once a week, tumor volume was measured as L×W^2/2 by caliper, and mice were selected for inclusion in the study when their tumor volume reached about 131 cubic millimeters. […] The day on which mice were first dosed was designated “Day 0” of the study, and the study continued for 112 days. Mice of Group 1 were orally administered 10 mg/kg GEMORAL every other day (i.e., Q2D×56), beginning on day 0 of the study and extending through the end of the study. […] Beginning on day 63 of the study, the mice were orally administered 10 mg/kg GEMORAL every other day (i.e., Q2D×25) through the end of the study. […] Beginning on day 21 of the study, the mice were orally administered 10 mg/kg GEMORAL every other day (i.e., Q2D×46) through the end of the study. […] They were intraperitoneally injected with saline on days 0, 3, 6, and 9 of the study (i.e., Q3D×4). […]

Data set [2] has the same test system. The data set is described as follows: Xenografted mouse model of human pancreatic cancer cell line CFPAC-1. In kind it is in vivo, BALB/c nude mice. To be noted: Group 1: GEM 120 mg/kg i.p. Q3D×23. (In general: A xenograft is tissue or cells of one species grown in another, often human tumour cells in immunodeficient mice.)
Protocol: Example 4 is a study in which the effects of GEM upon mice into which cells of human pancreatic cancer cell line CFPAC-1 were xenografted.
To prepare the xenografted mice used in the study, 1×10^6 human CFPAC-1 pancreatic cancer cells were transplanted subcutaneously on the right flank of 6 week old male BALB/c nude mice. Tumor growth was observed once a week and the tumor volume was measured as L×W^2/2 by caliper. Tumor development in the xenografted mice was then observed, and 48 such mice were selected for inclusion in the study when their tumor volume reached about 141 cubic millimeters. The mice were divided into 6 groups of 8 mice each for the study. The day on which mice were first dosed was designated “Day 0” of the study, and the study continued for 91 days.
Mice of Group 1 were intraperitoneally injected with 120 mg/kg of GEM on day 0 and every third day thereafter through day 66 (i.e., Q3D×23) and were not further treated thereafter.
Mice of Group 2 were intraperitoneally injected with 120 mg/kg of GEM on days 0, 3, 6, and 9 of the study (i.e., Q3D×4). Beginning on day 12 of the study, the mice were orally administered 10 mg/kg GEM in the GEMORAL composition (hereinafter “10 mg/kg GEMORAL”) every other day (i.e., Q2D×28) through day 66; the mice were not further treated thereafter.
Mice of Group 3 were intraperitoneally injected with 120 mg/kg of GEM on days 0, 3, 6, and 9 of the study (i.e., Q3D×4). Beginning on day 12 of the study, the mice were orally administered 3 mg/kg GEM in the GEMORAL composition (hereinafter “3 mg/kg GEMORAL”) every day (i.e., QD×55) through day 66; the mice were not further treated thereafter.
Mice of Group 4 were orally administered 3 mg/kg GEMORAL every day (i.e., QD×92), beginning on day 0 of the study and extending through the end of the study.
Mice of Group 5 were orally administered 10 mg/kg GEMORAL every other day (i.e., Q2D×46), beginning on day 0 of the study and extending through the end of the study.
Mice of Group 6 were controls and were not administered GEM. […]
The conditions of data set [3]: intravenous infusion, human cancer patients; cited from earlier work.
For data set [4], the system named is patient-derived human cholangiocarcinoma xenografts. The data set is described as follows: Xenografted mouse model of patient-derived human cholangiocarcinoma. The settings on record: Group 1: GEM 60 mg/kg i.p. Q3D×4. The data set is classed as in vivo. The protocol:
This example describes a study in which the effects of gemcitabine upon mice into which portions of a human patient-derived cholangiocarcinoma were xenografted. The xenografted mice were then treated with one of five treatment regimens and the results observed.
To prepare the xenografted mice used in the study, primary human cholangiocarcinoma fragments obtained from human patients were injected into “stock” male BALB/c nude mice. Subsequently, tumor fragments (roughly 2-3 millimeters in diameter) were harvested from the “stock” mice and inoculated subcutaneously into the right flank of other male BALB/c nude mice. Tumor development in the inoculated mice was then observed, and 40 such mice were selected for inclusion in the study when their tumor volume reached about 180 cubic millimeters (volume was assessed by multiplying tumor length by ½ (tumor width squared) (i.e., L×W^2/2), length and width being measured using a caliper). The mice were divided into 5 groups of 8 mice each for the study, all mice in each group having tumors of approximately equal size. The day on which mice were first dosed was designated “Day 1” of the study, and the study continued for 76 days. The mice were divided into Groups 1, 2, 3, 4, and 5. Mice of each group were treated identically.
Mice of Group 1 were intraperitoneally injected with 60 mg/kg of GEM on days 1, 4, 7, and 10 of the study (i.e., Q3D×4) and were not further treated thereafter. […]
Mice of Group 5 were controls and were not administered GEM. They were intraperitoneally injected with saline on days 1, 4, 7, and 10 of the study (i.e., Q3D×4). Beginning on day 13 of the study, the mice were orally administered distilled, deionized water every other day (i.e., Q2D×32) through the end of the study.
The study was continued until day 76 and the body weight losses among the mice of the various Groups were observed. […] For Group 3, 6 of 8 mice were dead by day 10.
Values reflecting anti-tumor responses, as compared with vehicle treatment (T/C %, calculated as the ratio of average tumor volume in treatment group vs. average tumor volume in the control group {Group 5}, expressed as a percentage) on different study days are indicated in Table 1.

The subject of data set [5] is HuCCT1 cholangiocarcinoma xenografts. The data set is described as follows: Xenografted mouse model of human cholangiocarcinoma cell line HuCCT1. The data set is classed as in vivo, BALB/c nude mice. The settings on record: Group 1: GEM 60 mg/kg i.p. Q3D×4. Here is the method: Example 3 is a study in which the effects of GEM upon mice into which cells of human cholangiocarcinoma cell line HuCCT1 were xenografted. The xenografted mice were then treated with one of five treatment regimens and the results observed over the study period of 90 days.
To prepare the xenografted mice used in the study, 1×10^6 HuCCT1 human cholangiocarcinoma cells were transplanted subcutaneously on the right flank of 6 week old male BALB/c nude mice. Tumor growth was observed once a week and the tumor volume was measured as L×W^2/2 by caliper. Tumor development in the xenografted mice was then observed, and 40 such mice were selected for inclusion in the study when their tumor volume reached about 124 cubic millimeters. The mice were divided into 5 groups of 8 mice each for the study. The day on which mice were first dosed was designated “Day 0” of the study, and the study continued for 90 days.
Mice of Group 1 were intraperitoneally injected with 60 mg/kg of GEM on days 0, 3, 6, and 9 of the study (i.e., Q3D×4) and were not further treated thereafter.
Mice of Group 2 were intraperitoneally injected with 60 mg/kg of GEM on days 0, 3, 6, and 9 of the study (i.e., Q3D×4). Beginning on day 13 of the study, the mice were orally administered 10 mg/kg GEM in the GEMORAL composition (hereinafter “10 mg/kg GEMORAL”) every other day (i.e., Q2D×40) through the end of the study.
Mice of Group 3 were intraperitoneally injected with 60 mg/kg of GEM on days 0, 3, 6, and 9 of the study (i.e., Q3D×4). Also beginning on day 1 of the study, the mice were orally administered 10 mg/kg GEMORAL every other day (i.e., Q2D×46) through the end of the study.
Mice of Group 4 were orally administered 10 mg/kg GEMORAL every other day (i.e., Q2D×46), beginning on day 1 of the study and extending through the end of the study.
Mice of Group 5 were controls and were not administered GEM. They were intraperitoneally injected with saline on days 0, 3, 6, and 9 of the study (i.e., Q3D×4). Beginning on day 13 of the study, the mice were orally administered distilled, deionized water every other day (i.e., Q2D×40) through the end of the study.
The study was continued until day 90 and body weight losses among the mice of the various Groups were observed. In Group 3, all mice lost over 20% body weight by day 12.
Values reflecting anti-tumor responses, as compared with vehicle treatment (T/C %) on different study days are indicated in Table 2. […] It is noteworthy that by day 12 the cumulative dose of GEM for Group 4 was only about 25% that of Group 1.

A short description of data set [6]: MTD of GEM intravenous infusion regime in human cancer patients (Fossella et al.). In kind it is in vivo. The protocol:
For GEM, others have determined MTD values for human cancer patients. For example, Fossella et al. (1997, J. Clin. Oncol. 15:310-316) estimated an MTD of 2,400 mg/m^2/week for a GEM intravenous infusion regime regime (2,400 mg/m^2 corresponding to 3,893 mg/60 kg for a human patient, equal to 64.988 mg/kg). Labeling for a commercial GEM product, marketed under the brand name GEMZAR (Eli Lilly and Co.) recommends an intravenous dosage of 1,000 or 1,250 mg/m^2. In details, GEMZAR dosage administration is conducted at a dose of 1,000 mg/m^2, corresponding to 1,622 mg/60 kg for a human patient, equal to 27.03 mg/kg, administered on Days 1 and 8 or Days 1, 8, and 15 of a 21-day cycle, or at a dose of 1,250 mg/m^2, corresponding to 2,027 mg/60 kg for a human patient, equal to 33.878 mg/kg, administered on Days 1, 8, and 15 of a 28-day cycle.

Where two headings read alike, the source gives them in different places.

For the molecule `O=c1[nH]cc(F)c(=O)[nH]1` [5FU, 5-fluorouracil], the “anti-tumor response attributable to 5FU treatment” value in data set [1] (Group 2: 5FU 20 mg/kg i.p. thrice weekly, first 9 weeks) is “No significant anti-tumor response”; in data set [1] (Group 3: 5FU 20 mg/kg i.p. thrice weekly, first 3 weeks) it was “No significant anti-tumor response”.
As usually defined, the T/C is the result in the treated group divided by that in the control group, in per cent. As for `Nc1ccn([C@@H]2O[C@H](CO)[C@@H](O)C2(F)F)c(=O)n1` [GEM, gemcitabine], in data set [2], the “days at which at least some mice were tumor free” value was 44 to 91 days. Moreover, the mice tumor free in data set [2] (at day 91) is on record as 6/8. In data set [2] (on day 81), the “maximum anti-tumor response, T/C” value was 0%. Further, the MTD in data set [3] was 2,400 mg/m^2/week; in data set [6] (human, in vivo, converted from 2,400 mg/m^2, read-out: MTD (corresponding dose per body weight)) it was 65 mg/kg. The T/C worked out at 52% in data set [4] (Day 14); 22% in data set [4] (Day 42); 46% in data set [4] (Day 73); 49% in data set [4] (Day 76); 54% in data set [5] (Day 12); 60% in data set [5] (Day 37). The figures for the T/C in data set [5] (Day 58), in data set [5] (Day 76) and in data set [5] (Day 90) were 93%, 96% and 82%, respectively. For the same molecule, the “tumor growth after end of dosing” value in data set [4] (after day 11) is “significant tumor growth after completing the scheduled dosing”. Besides, in data set [4] (by day 76), the “mice dead (died or tumor size >1000 cubic millimeters)” value was 4 of 8. Further, in data set [5], the “mean survival time (MST)” value was found to be 69 days. Besides, in data set [5] (day 90, Kaplan-Maier), the survival rate worked out at 50%. For the same molecule, the “maximum tumor growth inhibition value” in data set [5] (on day 27) amounted to 47%. Besides, the “MTD (corresponding dose for a human patient)” value in data set [6] (converted from 2,400 mg/m^2) was 3,893 mg/60 kg.
